Source: patent publication US20040156869A1, “2-substituted quinazolin-4-ylamine analogues” (Neurogen Corporation, priority 2002, published 2004)

Biological target: human capsaicin receptor (VR1) (Homo sapiens, UniProt Q8NER1)
Assay: Capsaicin receptor binding assay ([3H]RTX competition, VR1-transfected HEK293 membranes)

Sequence of human capsaicin receptor (VR1) (Q8NER1 whole entry): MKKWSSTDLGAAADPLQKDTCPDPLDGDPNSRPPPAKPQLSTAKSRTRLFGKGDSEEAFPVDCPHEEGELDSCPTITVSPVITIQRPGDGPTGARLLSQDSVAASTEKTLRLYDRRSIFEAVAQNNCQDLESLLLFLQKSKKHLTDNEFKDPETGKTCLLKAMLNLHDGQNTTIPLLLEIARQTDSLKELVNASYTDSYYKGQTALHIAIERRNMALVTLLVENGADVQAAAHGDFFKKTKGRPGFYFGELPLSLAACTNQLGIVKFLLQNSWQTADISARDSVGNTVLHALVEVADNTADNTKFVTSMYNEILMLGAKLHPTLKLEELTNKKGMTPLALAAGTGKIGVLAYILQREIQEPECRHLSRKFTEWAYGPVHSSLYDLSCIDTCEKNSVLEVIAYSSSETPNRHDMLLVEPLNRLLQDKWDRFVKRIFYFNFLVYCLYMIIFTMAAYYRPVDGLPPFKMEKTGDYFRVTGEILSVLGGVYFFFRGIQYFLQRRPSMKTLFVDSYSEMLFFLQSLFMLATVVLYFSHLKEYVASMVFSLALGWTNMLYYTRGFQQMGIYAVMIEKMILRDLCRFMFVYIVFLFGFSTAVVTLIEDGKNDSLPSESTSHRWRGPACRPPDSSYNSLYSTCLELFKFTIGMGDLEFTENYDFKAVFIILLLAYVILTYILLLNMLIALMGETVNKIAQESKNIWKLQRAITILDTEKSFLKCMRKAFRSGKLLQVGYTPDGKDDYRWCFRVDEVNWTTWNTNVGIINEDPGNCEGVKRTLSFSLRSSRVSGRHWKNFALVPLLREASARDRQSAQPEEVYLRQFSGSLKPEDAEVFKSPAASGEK

| Ki [µM] | SMILES |
| --- | --- |
| < 1 | Cc1cccnc1-c1ccc2c(Nc3ccc(C(F)(F)F)cc3)nc(CO)nc2n1 [Compound 119, [7-(3-Methyl-pyridin-2-yl)-4-(4-trifluoromethyl-phenylamino)-pyrido[2,3-d]pyrimidin-2-yl]-methanol] |
| < 1 | COCc1nc(Nc2ccc(S(=O)(=O)N3CCOCC3)cc2)c2ncc(-c3ncccc3Cl)cc2n1 [Compound 120, [7-(3-Chloro-pyridin-2-yl)-2-methoxymethyl-pyrido[3,2-d]pyrimidin-4-yl]-[4-(morpholine-4-sulfonyl)-phenyl]-amine] |
| < 1 | OCc1nc(Nc2ccc(C(F)(F)F)cc2)c2ncc(-c3ncccc3C(F)(F)F)cc2n1 [Compound 121, [4-(4-Trifluoromethyl-phenylamino)-7-(3-trifluoromethyl-pyridin-2-yl)-pyrido[3,2-d]pyrimidin-2-yl]-methanol] |
| < 1 | OCc1nc(Nc2ccc(C(F)(F)F)cc2)c2ncc(-c3ncccc3Cl)cc2n1 [Compound 122, [7-(3-Chloro-pyridin-2-yl)-4-(4-trifluoromethyl-phenylamino)-pyrido[3,2-d]pyrimidin-2-yl]-methanol] |
| < 1 | CN(C)CC(C)(C)COCc1nc(Nc2ccc(C(F)(F)F)cc2)c2ccc(-c3ncccc3C(F)(F)F)cc2n1 [Compound 123, [2-(3-Dimethylamino-2,2-dimethyl-propoxymethyl)-7-(3-trifluoromethyl-pyridin-2-yl)-quinazolin-4-yl]-(4-trifluoromethyl-phenyl)-amine] |
| < 1 | CC(C)(C)c1ccc(Nc2nc(COCCCN3CCOCC3)nc3cc(-c4ncccc4C(F)(F)F)ccc23)cc1 [Compound 124, (4-tert-Butyl-phenyl)-[2-(3-morpholin-4-yl-propoxymethyl)-7-(3-trifluoromethyl-pyridin-2-yl)-quinazolin-4-yl]-amine] |
| < 1 | COCc1nc(Nc2ccc(S(=O)(=O)N3CCOCC3)cc2)c2ccc(-c3ncccc3C(F)(F)F)cc2n1 [Compound 126, [2-Methoxymethyl-7-(3-trifluoromethyl-pyridin-2-yl)-quinazolin-4-yl]-[4-(morpholine-4-sulfonyl)-phenyl]-amine] |
| < 1 | CCOCc1nc(Nc2ccc(S(=O)(=O)N3CCOCC3)cc2)c2ccc(-c3ncccc3C(F)(F)F)cc2n1 [Compound 127, [2-Ethoxymethyl-7-(3-trifluoromethyl-pyridin-2-yl)-quinazolin-4-yl]-[4-(morpholine-4-sulfonyl)-phenyl]-amine] |
| < 1 | CC(C)OCc1nc(Nc2ccc(S(=O)(=O)N3CCOCC3)cc2)c2ccc(-c3ncccc3C(F)(F)F)cc2n1 [Compound 128, [2-Isopropoxymethyl-7-(3-trifluoromethyl-pyridin-2-yl)-quinazolin-4-yl]-[4-(morpholine-4-sulfonyl)-phenyl]-amine] |

| SMILES | Ki [µM] |
| --- | --- |
| CC(C)(C)c1ccc(Nc2nc(COCCCCN3CCOCC3)nc3cc(-c4ncccc4C(F)(F)F)ccc23)cc1 [Compound 125, (4-tert-Butyl-phenyl)-[2-(4-morpholin-4-yl-butoxymethyl)-7-(3-trifluoromethyl-pyridin-2-yl)-quinazolin-4-yl]-amine] | < 1 |
| Cc1cccnc1-c1ccc2c(Nc3ccc(C(C)(C)C)cc3)nc(COCC(C)C)nc2n1 [Compound 129, (4-tert-Butyl-phenyl)-[2-isobutoxymethyl-7-(3-methyl-pyridin-2-yl)-pyrido[2,3-d]pyrimidin-4-yl]-amine] | < 1 |
| Cc1cccnc1-c1ccc2c(Nc3ccc(C(C)C)cc3)nc(COCC(C)C)nc2n1 [Compound 130, [2-Isobutoxymethyl-7-(3-methyl-pyridin-2-yl)-pyrido[2,3-d]pyrimidin-4-yl]-(4-isopropyl-phenyl)-amine] | < 1 |
| Cc1cccnc1-c1ccc2c(Nc3ccc(C(F)(F)F)cc3)nc(COCC(C)C)nc2n1 [Compound 131, [2-Isobutoxymethyl-7-(3-methyl-pyridin-2-yl)-pyrido[2,3-d]pyrimidin-4-yl]-(4-trifluoromethyl-phenyl)-amine] | < 1 |
